# Laboratory results published in publication PMC12390684 (Viruses, 2025).
# Where two headings read alike, the source gives them in different places.
# Key:
# [1] = biological target: T1, IN-GCN2 interaction (6xHis-IN / GST-GCN2) (UniProt P04585+Q9P2K8); assay: biochemical; type: binding, HIV-1 IN; human GCN2; conditions: for IC50: IC50, inhibition of IN-GCN2 interaction; for IN-GCN2 interaction (%): screen, single dose 100 µM, single replicate, residual AlphaLISA signal normalized to DMSO control
# P4 MAGI CCR5+ cells = assay: Cytotoxicity (CellTiter 96 AQueous); type: cell-based
# [2] = Cytotoxicity (CellTiter 96 AQueous); type: cell-based; conditions: human
# HIV-1Laï = assay: microbe, parasite or virus in culture; type: cell-based; conditions: for EC50: 24 h infection, read-out: EC50
# GCN2 [3] = biological target: T2, GCN2 (Homo sapiens, UniProt Q9P2K8); assay: In vitro phosphorylation assay: GCN2 autophosphorylation; type: biochemical; conditions: GCN2 25 nM, IN 700 nM; compound 10 µM to 4.6 nM
# T2 sequence (Q9P2K8 192-1024): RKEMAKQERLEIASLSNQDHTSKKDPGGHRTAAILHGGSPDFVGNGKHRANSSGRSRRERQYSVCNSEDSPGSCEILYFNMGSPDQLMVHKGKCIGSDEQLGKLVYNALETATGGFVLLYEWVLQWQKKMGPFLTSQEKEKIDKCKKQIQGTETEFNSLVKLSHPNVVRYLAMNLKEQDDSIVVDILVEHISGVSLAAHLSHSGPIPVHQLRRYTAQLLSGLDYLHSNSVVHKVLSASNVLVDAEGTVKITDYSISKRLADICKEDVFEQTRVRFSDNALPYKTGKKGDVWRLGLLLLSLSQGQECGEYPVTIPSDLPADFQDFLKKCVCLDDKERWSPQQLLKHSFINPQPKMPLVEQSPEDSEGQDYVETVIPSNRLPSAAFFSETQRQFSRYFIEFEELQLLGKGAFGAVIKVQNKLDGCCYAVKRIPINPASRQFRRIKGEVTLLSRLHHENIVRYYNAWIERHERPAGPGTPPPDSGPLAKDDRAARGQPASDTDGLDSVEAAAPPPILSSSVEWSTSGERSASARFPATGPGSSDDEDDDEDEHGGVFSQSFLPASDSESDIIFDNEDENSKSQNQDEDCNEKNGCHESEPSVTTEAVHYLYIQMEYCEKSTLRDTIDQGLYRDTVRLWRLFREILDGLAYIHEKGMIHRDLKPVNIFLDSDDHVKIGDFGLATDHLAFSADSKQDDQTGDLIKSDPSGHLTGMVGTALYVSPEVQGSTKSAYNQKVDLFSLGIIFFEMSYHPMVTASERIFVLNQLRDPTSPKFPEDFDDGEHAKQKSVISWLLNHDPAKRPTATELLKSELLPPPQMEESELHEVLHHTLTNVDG
# HIV-1 IN = HIV-1 IN (Human immunodeficiency virus type 1 group M subtype B, UniProt P04585); assay: Strand transfer (ST) gel-based assay; type: biochemical; conditions: for apparent IC50, inhibition of ST activity, in words: 400 nM IN, 20 nM substrate, 1 h 37 °C
# [4] = biological target: T3, phosphorylation of IN by GCN2 (UniProt P04585+Q9P2K8); assay: In vitro phosphorylation assay: phosphorylation of IN by GCN2; type: biochemical, HIV-1 IN; human GCN2; conditions: GCN2 25 nM, IN 700 nM; compound 10 µM to 4.6 nM
# [5] = biological target: T1, IN-GCN2 interaction (6xHis-IN / GST-GCN2); parameters: method as in earlier work; conditions: single dose 100 µM, previous data ref 26; cited from earlier work
# GCN2 [6] = biological target: T2, GCN2; parameters: method as in earlier work; conditions: previous study ref 26; cited from earlier work
# [7] = biological target: T3, phosphorylation of IN by GCN2; parameters: method as in earlier work; conditions: previous study ref 26; cited from earlier work
# [8] = biological target: GST-GCN2, active truncated human GCN2 (192-1024) with an N-terminal GST tag (human) (UniProt Q9P2K8); assay: AlphaScreen or HTRF
# [9] = SAR study, fresh dilutions from powder, at least three independent experiments
# [10] = Human immunodeficiency virus 1, MAGI, 24 h
# [11] = plated compounds of the screen, dose-response 100 µM to 46 nM (Figure 1B), n = 9
compound,measurement,setting,value
COc1cccc2c1C(=O)c1c(O)c3c(c(O)c1C2=O)CC(O)(C(=O)CO)CC3OC1CC(N2CCOCC2C#N)C(O)C(C)O1 (centres unmarked) [Compound 1p],IC50,[1]; [9],61.1 µM
same,"lowest dose used, at which compound was still toxic",P4 MAGI CCR5+ cells; human,about 2 nM
same,CC50,"[2]; 24 h, read-out: CC50",< 0.002 µM
"CCC1(O)CC(OC2CC(N(C)C)C(OC3CC(O)C(OC4CCC(=O)C(C)O4)C(C)O3)C(C)O2)c2c(cc3c(c2O)C(=O)c2c(O)ccc(O)c2C3=O)C1C(=O)OC (centres unmarked) [NSC18334, cinerubin A]",IN-GCN2 interaction (%),[1],5.47%
same,CC50,"[2]; 24 h, read-out: CC50",> 5 µM
same,EC50,HIV-1Laï; [10],0.79 µM
same,"effect on GCN2 autophosphorylation, in words",GCN2 [3],inhibited GCN2 autophosphorylation
same,"apparent IC50, inhibition of ST activity, in words",HIV-1 IN,low-micromolar
same,"inhibition of IN phosphorylation, in words",[4],full inhibition
COc1cccc2c1C(=O)c1c(O)c3c(c(O)c1C2=O)C[C@@](O)(C(C)=O)C[C@@H]3O[C@H]1C[C@H](N)[C@H](O)[C@H](C)O1 [NSC82151],IN-GCN2 interaction (%),[1],50.79%
same,inhibition of IN-GCN2 interaction,[5],around 70%
CC(=O)[C@]1(O)Cc2c(O)c3c(c(O)c2[C@@H](O[C@H]2C[C@H](N)[C@H](O)[C@H](C)O2)C1)C(=O)c1ccccc1C3=O [NSC256439],inhibition of IN-GCN2 interaction,[5],around 70%
"O=C1c2c(O)ccc(O)c2C(=O)c2c(NCCNCCO)ccc(NCCNCCO)c21 [NSC279836, mitoxantrone, reference compound]",concentration up to which GCN2 autophosphorylation was not affected,GCN2 [6],300 µM
same,IC50,[1]; [9],2.4 µM
same,"apparent IC50, inhibition of IN phosphorylation",[7],low micromolar range
same,CC50 at 24 h,[2],> 5 µM
"CC1Oc2cc3c(-c4c(O)cc(O)c5c(O)c6c(cc45)OC(C)C(C)C6=O)c(O)cc(O)c3c(O)c2C(=O)C1C (centres unmarked) [NSC345647, chaetochromin]",IC50,[1]; [11],5.2 µM
same,IN-GCN2 interaction (%),[1],6.36%
same,CC50 at 24 h,"[2]; 24 h, read-out: CC50",> 5 µM
same,"effect on HIV replication, in words",HIV-1Laï,inactive
same,EC50,HIV-1Laï,> 5 µM
same,"effect on GCN2 autophosphorylation, in words",GCN2 [3],inhibited GCN2 autophosphorylation
same,"apparent IC50, inhibition of ST activity, in words",HIV-1 IN,mid-nanomolar concentration range
same,"inhibition of IN phosphorylation, in words",[4],full inhibition
COc1cc2c(cc3c4c(cc5c(c42)OCO5)CCN3C)c(OC)c1OC [NSC785155],IC50,[1]; [9],5.6 µM
same,IC50,[1]; [11],14.5 µM
same,IN-GCN2 interaction (%),[1],8.90%
same,CC50 at 24 h,"[2]; P4 MAGI CCR5+ cells, 24 h, read-out: CC50",> 5 µM
same,EC50,HIV-1Laï; [10],> 5 µM
same,"effect on GCN2 autophosphorylation, in words",GCN2 [3],limited impact
same,"inhibition of ST activity, in words",HIV-1 IN; 111 µM to 51 nM,unable to fully inhibit ST even at 111 µM
same,"inhibition of IN phosphorylation, in words",[4],partially inhibited
COc1cc2c3c(c1O)-c1cc(N(Cc4ccccc4)Cc4ccccc4)ccc1CC3N(C)CC2 (centres unmarked) [NSC785176],CC50,P4 MAGI CCR5+ cells; 24 h,> 5 µM
Recombinant full-length HIV-1 integrase (6xHis-IN fusion protein) (enzyme),"AlphaLISA signal (DMSO control, plate 1)",[8],5610 Alpha counts
same,"AlphaLISA signal (DMSO control, plate 2)",[8],3900 Alpha counts
